According to US8609610B2, “Inhibitors of the trypsin-like site of the proteasome and methods of use thereof” (Trustees of Dartmouth College, priority 2011, dated 2013):

Tests used:
[1] = target: T1, trypsin-like site of 26S proteasomes (Oryctolagus cuniculus, UniProt G1SWK8); assay: Inhibition of purified 26S proteasomes, substrate Ac-RLR-amc; format: biochemical, rabbit; settings: 26S proteasomes from rabbit muscles
T1 construct: IC50 for sites in 26S proteasomes: Tr-L; other: purified 26S proteasomes; other: 26S proteasomes from rabbit muscles
T1 sequence (G1SWK8 1-271): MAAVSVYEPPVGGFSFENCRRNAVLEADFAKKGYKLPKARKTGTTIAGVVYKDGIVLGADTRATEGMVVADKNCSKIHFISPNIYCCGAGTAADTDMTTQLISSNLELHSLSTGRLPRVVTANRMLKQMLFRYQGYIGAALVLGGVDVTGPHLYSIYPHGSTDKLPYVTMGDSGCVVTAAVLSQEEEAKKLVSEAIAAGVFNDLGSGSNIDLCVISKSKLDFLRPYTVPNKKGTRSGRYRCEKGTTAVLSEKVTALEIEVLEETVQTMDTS

[2] = system: trypsin-like site of 26S proteasomes; assay: as above; format: biochemical, rabbit
[3] = target: T2, chymotrypsin-like site of 26S proteasomes (Oryctolagus cuniculus, UniProt G1T4Q9); assay: Inhibition of purified 26S proteasomes, substrate Suc-LLVY-amc; format: biochemical, rabbit; settings: >>30 no inhibition at 30 μM, >30 inhibition between 10 and 50% at 30 μM, read-out: IC50 for sites in 26S proteasomes: Chym-L
T2 sequence (G1T4Q9 1-263): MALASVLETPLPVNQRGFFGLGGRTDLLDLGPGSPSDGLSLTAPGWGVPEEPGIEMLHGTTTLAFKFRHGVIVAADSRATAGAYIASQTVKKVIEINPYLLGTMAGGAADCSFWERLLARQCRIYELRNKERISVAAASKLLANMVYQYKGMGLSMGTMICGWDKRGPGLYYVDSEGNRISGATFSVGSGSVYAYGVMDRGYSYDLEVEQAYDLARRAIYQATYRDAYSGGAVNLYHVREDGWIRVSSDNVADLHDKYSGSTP
Protocol: (§1) 26S proteasomes were purified from rabbit muscle using known methods (Screen, et al. (2010) supra). […] NOVEX Bis-Tris gels (12%, Invitrogen) with MOPS running buffer were used for electrophoretic separation of catalytic subunits modified by active-site probes. Inhibition of active sites inside cells was assayed using luminescent PROTEASOMEGLO assay (Promega; Moravec, et al. (2009) Anal. Biochem. 387:294-302) according to known methods (Britton, et al. (2009) supra).

[4] = target: caspase-like site of 26S proteasomes (Oryctolagus cuniculus, UniProt A0A5F9DQW2); assay: Inhibition of purified 26S proteasomes, substrate Ac-nLPnLD-amc; format: biochemical, rabbit; settings: >>30 no inhibition at 30 μM, >30 inhibition between 10 and 50% at 30 μM, read-out: IC50 for sites in 26S proteasomes: Casp-L
Protocol: as §1

[5] = target: T3, trypsin-like sites (β2) of proteasome in MM cells (Homo sapiens, UniProt Q99436); assay: PROTEASOMEGLO assay of proteasome inhibition in MM cells; format: cell-based; settings: NCI-H929 cells treated overnight
T3 construct: endogenous in cells; host or cells: NCI-H929, RPMI-8226 and other MM cell lines
T3 sequence (Q99436 44-277): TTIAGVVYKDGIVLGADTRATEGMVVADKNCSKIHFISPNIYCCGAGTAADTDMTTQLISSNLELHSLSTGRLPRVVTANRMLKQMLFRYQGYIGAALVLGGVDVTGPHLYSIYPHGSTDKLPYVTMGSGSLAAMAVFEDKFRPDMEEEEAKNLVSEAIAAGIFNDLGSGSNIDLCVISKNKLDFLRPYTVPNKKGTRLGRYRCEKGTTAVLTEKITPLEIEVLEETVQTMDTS

Cathepsin B, H, L, S = assay: Cathepsin activity with pan-cathepsin substrate Z-FR-amc; format: cell-based
Protocol: (§2) Cathepsin B, H, L, S activity was measured with pan-cathepsin substrate Z-FR-amc (Kirschke & Wiederanders (1994) Methods Enzymol. 244:500-11) in extracts of cytosol-less cells at pH 6.0 (Screen, et al. (2010) supra). Cathepsin D activity was measured in cytosol-less extracts using SENSOLYTE 520 Cathepsin D Fluorometric Assay Kit (AnaSpec). Combined cathepsin D and E activity was measured using the same kit, in which cathepsin D substrate provided with the kit was replaced with 7-Methoxycoumarin-[…](Dnp)-X′-NH2 (SEQ ID NO:10; where “X′” stand for D-Arg) internally quenched fluorogenic substrate of cathepsin D and E. In this case, pH 3.0 assay buffer used for cell extraction. All activity observed using both procedures was inhibited by more than 98% by specific inhibitor of aspartic proteases pepstatin A.

[6] = system: Caspase-3/7 activity in NCI-H929 and MM1.R cell lines; assay: APO-ONE caspase-3/7 assay; format: cell-based; settings: combination of NC-001 and NC-002
Protocol: RPMI-8226 and NCI-H929 cells were cultured in RPMI-1640 supplemented with 10% fetal bovine serum, penicillin, streptomycin, and plasmocin in 5% CO2 humidified incubator. HEK-293T cells were cultured in DMEM containing 10% fetal calf serum, 10 units/mL penicillin, and 10 μg/mL streptomycin in a 7% CO2 humidified incubator. Viability of multiple myeloma cells was measured with ALAMAR BLUE mitochondrial dye conversion assay. Viability of peripheral blood mononuclear cells (PBMNCs) was measured using CELL TITER-GLO luminescent cell viability assay (Promega), which is based on quantification of ATP present in the cells. Caspase-3/7 activity was measured using APO-ONE 3/7 homogeneous assay (Promega).

β2 and β2i sites = assay: MV-151 label-competition in extracts of RPMI-8226 MM cells; format: biochemical; settings: extracts of RPMI-8226 cells, MV-151 probe
From the text: Multiple myeloma cells express constitutive proteasomes and immunoproteasomes, and substrates used for the measurement of activity were cleaved by both. To determine whether there were any differences in inhibition of constitutive proteasomes or immunoproteasomes by NC-002, NC-012, and NC-022, the fluorescent activity-based probe MV-151 (Verdoes, et al. (2006) Chem. Biol. 13:1217-1226) was used in a label-competition experiment. Extracts of RPMI-8226 MM cells (which express more immunoproteasomes than NCI-H929 cells) were treated first with the NC inhibitors and then with the MV-151 probe. This was followed by fractionation on SDS-PAGE to separate proteasome subunits and imaging to reveal those subunits labeled by the probe (i.e., unmodified by the inhibitors).

cathepsin D = target: T4, cathepsin D (Homo sapiens, UniProt P07339); assay: Cathepsin D activity assay (SENSOLYTE 520); format: cell-based
T4 construct: endogenous in cells
Protocol: as §2

[7] = system: proteasome catalytic subunits in NCI-H929 cells; assay: Isolation and identification of polypeptides modified by az-NC-002; format: cell-based; settings: BioP ligation, streptavidin isolation, mass-spectrometry
Protocol: Cells were treated with the activity-based site probe overnight and lysed with 50 mM Tris-HCl, 10% glycerol, 5 mM MgCl2, 0.5 mM EDTA, 0.5% CHAPS, 1 mM ATP. […] After on-beads trypsin digestion, samples were analyzed by LC-MS/MS (Florea, et al. (2010) Chem. Biol. 17:795-801). IRDYE 800 CW-conjugated streptavidin was purchased from Rockland, hsc71 antibodies from Abcam (Cat #19136), and β2 antibodies from Abgent (Cat #AP2914b).
To further confirm that NC-002, NC-012 and NC-022 were specific for the trypsin-like sites and that the biological activity was not due to off-target effects, az-NC-002 was synthesized as an NC-002-derived, activity-based probe. […] One major az-NC-002-specific streptavidin-reactive band was detected. […] A weaker band of slightly lower mobility, matching the mobility of β2i band, was also detected. […] A number of endogenously biotinylated proteins in the 70-100 kDa region were also detected and can serve as a loading control.
To further confirm that the probe covalently modified β2 and β2i subunits, proteasome was denatured after BioP modification, biotinylated polypeptides were isolated on streptavidin beads, and bound polypeptides were identified by mass-spectrometry after on-beads trypsin digestion. […] No peptides derived from other catalytic subunits were detected.

[8] = target: β2 (trypsin-like site) of proteasome in HEK-293T cells (Homo sapiens, UniProt P49720+Q99436); assay: Competition assay in living HEK-293T cells with activity-based probe; format: cell-based
Protocol: Proteasome inhibition in MM cells was measured with luminogenic substrates using PROTEASOMEGLO assay (Promega). […] An aliquot of culture was pelleted and medium was removed and replaced with PBS. The resulting cell suspension was mixed with luminogenic substrates in the manufacturer-provided lysis/assay buffer. After 3 minutes mixing on an orbital shaker, the plate was incubated in the dark for additional 17 minutes, followed by the measurements of the luminescence, performed in triplicate for each substrate/data point. Data were analyzed as for purified proteasomes. […] Cells (1×10^6 per well of a 6-well plate) were incubated with the inhibitors for 4 hours at 37° C. and this was followed by a 2 hour incubation with 5 μM BODIPY-TMR-epoxomicin. Subsequently, the medium was removed and the cells were washed with PBS and harvested. […] The supernatant was collected and the protein concentration was determined by the Bradford assay, and used to normalize gel loading. The samples were analysed by SDS-PAGE and fluorescent densitometry as described for competition experiment in cell lysates. IC50 values were calculated from three independent experiments using […] PRISM software.
Human embryonic kidney cells (some 1×10^6) were cultured in 6-well plates in DMEM containing 10% fetal calf serum, 10 units/mL penicillin and 10 μg/mL streptomycin in a 7% CO2 humidified incubator at 37° C. overnight. Part of the medium was taken and to this was added the appropriate inhibitor in DMSO (1 μL of a 1,000× stock solution), after which the medium was added to the cells. The cells were incubated with the inhibitors for 4 hours at 37° C. and this was followed by addition of MV151 (1 μL of a 5 mM stock solution in DMSO) and incubation for 2 hours at 37° C. Next, the medium was removed and the cells were washed with PBS and harvested. […] The supernatant was collected and the protein concentration was determined by the Bradford assay. All samples were normalized to the same protein concentration with lysis buffer.

β2 proteasome subunit = target: T5, β2 proteasome subunit (Homo sapiens, UniProt P49720+Q99436); assay: Competition assay in HEK-293T cell lysate with MV151; format: biochemical; settings: HEK-293T lysate, 5 μM
T5 construct: Whole cell lysates of HEK-293T or EL-4 cells were made by sonication; endogenous in cells; host or cells: HEK-293T

β5 proteasome subunit = target: T6, β5 proteasome subunit (Homo sapiens, UniProt P20618+P28074); assay: as above; format: biochemical; settings: HEK-293T lysate, 5 μM
T6 construct: Whole cell lysates of HEK-293T or EL-4 cells were made by sonication; endogenous in cells; host or cells: HEK-293T
Protocol: Whole cell lysates of HEK-293T or EL-4 cells were made by sonication in 3 volumes of lysis buffer containing 50 mM Tris pH 7.5, 1 mM DTT, 5 mM MgCl2, 250 mM sucrose, 2 mM ATP, 0.025% digitonin. Protein concentration was determined by the Bradford assay. Cell lysates (13.5 μg total protein for HEK lysates and 9 μg total protein for EL-4 lysates) were exposed to the inhibitors for 1 hour at 37° C. prior to incubation with MV151 (0.5 μM) or BODIPY-TMR-epoxomicin (0.5 μM) for an additional 1 hour at 37° C. Reaction mixtures were boiled with Laemmli's buffer containing (3-mercaptoethanol for 5 minutes before being resolved by 12.5% SDS-PAGE. In-gel detection of residual proteasome activity was performed in the wet gel slabs directly on the TYPHOON Variable Mode Imager (Amersham Biosciences) using the Cy3/Tamra settings (λex 532 nm, λem 560 nm) to detect MV151, BODIPY-TMR-epoxomicin and Cy2/Fam settings (λex 488 nm, λem 520 nm) to detect compounds 39 and 59.
The inhibition potential of the inhibitors for each of the catalytically active subunits was assessed in competition assays employing extracts of human embryonic kidney cells (HEK-293T) and mouse lymphoma cells (EL-4) in combination with the fluorescent broad spectrum proteasome probe MV151 (Verdoes, et al. (2006) Chem. Biol. 13:1217-1226). Competitive inhibition of a proteasome active site is reflected by the disappearance of the corresponding band on a gel.

Chain of caspase-like site of 26S proteasomes (A0A5F9DQW2 1-212): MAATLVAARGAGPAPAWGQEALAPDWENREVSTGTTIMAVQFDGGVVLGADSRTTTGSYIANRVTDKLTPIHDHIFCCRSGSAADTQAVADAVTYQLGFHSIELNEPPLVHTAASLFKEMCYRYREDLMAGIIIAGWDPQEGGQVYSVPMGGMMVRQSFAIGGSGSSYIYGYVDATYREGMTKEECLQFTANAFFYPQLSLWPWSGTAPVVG
T4 sequence (P07339 65-412): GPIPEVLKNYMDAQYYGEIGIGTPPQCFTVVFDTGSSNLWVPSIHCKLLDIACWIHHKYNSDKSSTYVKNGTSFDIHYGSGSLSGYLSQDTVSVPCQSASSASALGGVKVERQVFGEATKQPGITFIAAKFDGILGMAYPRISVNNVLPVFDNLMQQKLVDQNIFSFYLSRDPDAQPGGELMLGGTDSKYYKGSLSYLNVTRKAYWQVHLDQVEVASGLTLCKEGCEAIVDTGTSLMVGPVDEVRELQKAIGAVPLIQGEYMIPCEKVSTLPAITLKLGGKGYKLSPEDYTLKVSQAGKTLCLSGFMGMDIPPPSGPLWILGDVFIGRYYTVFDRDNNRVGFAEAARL

CC(=O)N[C@@H](CC(C)C)C(=O)N[C@@H](CC(C)C)C(=O)N[C@@H](CCCNC(=N)N)C(=O)[C@@]1(C)CO1 [NC-002, Ac-Leu-Leu-Arg-ek]
proteasome inhibitory potential on purified 26S proteasomes [1]: potent and specific inhibitors of the trypsin-like sites
IC50 (Chym-L)/IC50 (Tr-L) ([2]; rabbit 26S proteasomes): >30
IC50 [3]: > 30 µM
IC50 [4]: > 30 µM
inhibition of trypsin-like activity in live cells [5]: sub-micromolar concentrations
inhibition of lysosomal cysteine proteases (Cathepsin B, H, L, S): did not inhibit
caspase activity (apoptosis) [6]: did not cause any significant increase in caspase activity
inhibition of constitutive (β2) versus immunoproteasome (β2i) trypsin-like sites (β2 and β2i sites): equipotent inhibitors of the trypsin-like sites of constitutive and immunoproteasomes

CC(C)C[C@H](NC(=O)CN=[N+]=[N-])C(=O)N[C@@H](CC(C)C)C(=O)N[C@@H](CCCNC(=N)N)C(=O)[C@@]1(C)CO1 [az-NC-002, Az-Gly-Leu-Leu-Arg-ek]
inhibition of cathepsin D (cathepsin D): no significant inhibition
subunits modified by the probe [7]: trypsin-like site-specific activity-based probe

BODIPY-triazole-Phe-Leu-Leu-Phe (4-CH2NH2)-VS [Compound 39]
inhibition of trypsin- and chymotrypsin-like activities [2]: equipotently inhibited trypsin- and chymotrypsin-like activities
specificity after attachment of BODIPY-FL dye [2]: complete loss of specificity
inhibition of β2 and β5 in living cells ([8]; 5 μM): seemed not to be competed away at all
inhibition of proteasome activity in living cells ([8]; 50 μM): not all proteasome activity was silenced
inhibition of β2 in cell lysate (β2 proteasome subunit): all β2 and β5 proteasomal activity was inhibited
inhibition of β5 in cell lysate (β5 proteasome subunit): all β2 and β5 proteasomal activity was inhibited
